Data: patent EP2914280B1, “SOMATOSTATIN-DOPAMINE CHIMERIC ANALOGS” (IPSEN PHARMA S.A.S., priority 2012, dated 2014)
Read-outs that look alike come from different tables or passages of the source. Numbered stars: 1 amine (or outer) side, 2 acyl side, 3 side chain; on linkers, the order of the positions; unused ones are H or OH. Bridge positions count the residues as written; N and C are the ends. Square brackets hold non-standard residues; d marks the D form. Peptide text beside a SMILES is read from it. * marks the point of attachment. X1 = CN1C[C@H](CSCCN(CCSC[C@@H]2C[C@@H]3c4cccc5[nH]cc(c45)C[C@H]3N(C)C2)[C@H](CCCCN[*:2])C(=O)[*:1])C[C@@H]2c3cccc4[nH]cc(c34)C[C@H]21; X2 = CN1C[C@H](CSCC(=O)*)C[C@@H]2c3cccc4[nH]cc(c34)C[C@H]21; 4Pal = N[C@@H](Cc1ccncc1)C(=O)O

Experiments:
hSSTR1 = target: T1, hSSTR1 (Homo sapiens, UniProt P30872); assay: Somatostatin receptor radioligand binding assay (hSSTR1)
T1 construct: expressed in transfected cells; host or cells: CHO-K1 (ATCC), pcDNA3.1, G418-selected clonal line; membranes
T1 sequence (P30872 whole entry): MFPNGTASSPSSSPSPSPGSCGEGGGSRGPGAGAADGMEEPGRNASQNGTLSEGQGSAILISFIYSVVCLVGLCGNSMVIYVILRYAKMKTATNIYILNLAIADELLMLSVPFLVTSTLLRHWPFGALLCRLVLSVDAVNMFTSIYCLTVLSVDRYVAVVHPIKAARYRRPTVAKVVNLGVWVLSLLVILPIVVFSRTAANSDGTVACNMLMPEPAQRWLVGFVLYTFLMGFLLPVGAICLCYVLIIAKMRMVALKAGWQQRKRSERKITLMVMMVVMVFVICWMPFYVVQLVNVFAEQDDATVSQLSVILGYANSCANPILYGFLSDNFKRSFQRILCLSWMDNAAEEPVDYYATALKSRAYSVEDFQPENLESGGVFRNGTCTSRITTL
Method: (§1) The affinities of a test compound for the human somatostatin receptors were determined by radioligand binding assays in CHO-K1 cells stably transfected with each of the human somatostatin receptor subtypes, hSSTR1-5. […] Clonal cell lines stably expressing each of the somatostatin receptors were obtained by transfection into CHO-K1 cells (ATCC) and subsequently selected with culture media containing 0.8 mg/mL of G418 (Life Technologies).
(§2) Membranes for in vitro receptor binding assays were obtained by the following procedures. […] The supernatant containing the plasma membranes was centrifuged at 100,000 x g for 30 minutes and the pellet was resuspended in buffer containing 20 mM glycine-glycine, 1 mM MgCl2, 250 mM sucrose, pH 7.2, for storage at -80°C.
(§3) For the SSTR1, 2 and 5 assays, membranes and various concentrations of test compounds were incubated in 96-well plates for 60 minutes at 25°C with 0.05 nM [^125I-Tyr^11]-SRIF-14 (for hSSTR1; PerkinElmer Life Science), 0.05 nM [^125I-Tyr]-seglitide (for hSSTR2; PerkinElmer Life Science) or 0.05 nM [^125I-Tyr]-[DPhe-cyclo(Cys-Tyr-DTrp-Lys-Val-Cys)-Thr-NH2] (for hSSTR5; PerkinElmer Life Science) in 50 mM HEPES, 0.2% BSA, 0.1 mM MgCl2, pH 7.5.
(§4) The incubations were terminated by rapid filtration through GF/C glass microfiber filter plates (pre-wet with 0.3% polyethyleneimine and 0.1 % BSA) using a 96-well cell harvester (Brandel). Plates were washed six times with 1 mL/well aliquots of ice-cold buffer containing 50 mM Tris buffer, pH 7.7. Specific binding was defined as the total radioligand bound minus the bound in the presence of 1000 nM SRIF-14.

hSSTR2 [1] = target: T2, hSSTR2 (Homo sapiens, UniProt P30874); assay: Somatostatin receptor radioligand binding assay (hSSTR2);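 also: radioligand displacement on membranes of CHO-K1 cells stably transfected with human SSTR2, specific binding taken as total minus binding left with 1000 nM SRIF-14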
T2 construct: host or cells: 'Cells expressing hSSTR2'
T2 sequence (P30874 whole entry): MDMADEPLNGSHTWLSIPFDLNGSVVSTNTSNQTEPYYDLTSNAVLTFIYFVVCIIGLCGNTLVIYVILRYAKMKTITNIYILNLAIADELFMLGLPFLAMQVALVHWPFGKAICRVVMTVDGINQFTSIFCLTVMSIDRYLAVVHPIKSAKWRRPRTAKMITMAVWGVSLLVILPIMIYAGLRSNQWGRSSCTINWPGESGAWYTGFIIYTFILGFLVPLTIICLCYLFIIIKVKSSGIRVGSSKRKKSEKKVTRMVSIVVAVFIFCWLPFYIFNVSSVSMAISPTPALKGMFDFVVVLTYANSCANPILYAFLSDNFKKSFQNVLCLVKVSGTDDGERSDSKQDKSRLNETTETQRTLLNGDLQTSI
Method: as §1, §2, §3, §4

hSSTR5 = target: T3, hSSTR5 (Homo sapiens, UniProt P35346); assay: Somatostatin receptor radioligand binding assay (hSSTR5); settings: CHO-K1 cell membranes; 0.05 nM [125I-Tyr]-[DPhe-cyclo(Cys-Tyr-DTrp-Lys-Val-Cys)-Thr-NH2]; 60 minutes at 25°C; read-out: hSSTR5 Ki (nM) ± SEM
T3 construct: expressed in transfected cells; host or cells: CHO-K1 (ATCC), pcDNA3.1, G418-selected clonal line; membranes
T3 sequence (P35346 whole entry): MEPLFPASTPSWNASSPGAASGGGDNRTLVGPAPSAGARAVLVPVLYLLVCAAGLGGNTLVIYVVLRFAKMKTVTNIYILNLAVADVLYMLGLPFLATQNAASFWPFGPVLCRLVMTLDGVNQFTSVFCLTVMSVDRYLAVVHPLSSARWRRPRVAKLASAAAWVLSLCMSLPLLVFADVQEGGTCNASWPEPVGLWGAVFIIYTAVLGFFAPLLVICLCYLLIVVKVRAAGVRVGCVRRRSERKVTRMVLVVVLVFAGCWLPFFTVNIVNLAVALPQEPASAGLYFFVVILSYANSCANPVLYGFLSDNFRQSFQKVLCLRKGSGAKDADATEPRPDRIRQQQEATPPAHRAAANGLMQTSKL
Method: as §1, §2, §3, §4

hSSTR2 [2] = target: T2, hSSTR2; assay: Intracellular calcium mobilization assay (FLIPR Calcium 4), hSSTR2; format: cell-based; settings: for improvement in EC50 over Reference Compound A: p value (Student's t-test, one-tailed) < 0.05;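 as to all read-outs here: agonist activity measured in cells expressing hSSTR2, seeded in 384-well plates, loaded with Calcium 4 dye, read-out as rise in intracellular calcium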
Method: (§5) The ability of select compounds according to the present invention to activate hSSTR2 and hDRD2 was determined by the intracellular calcium mobilization assay using FLIPR Calcium 4 assay kit (Molecular Devices).
(§6) Cells expressing hSSTR2 or hDRD2 were plated in 384-well microplates in tissue culture media and incubated for 16-24 hours at 37°C in a humidified atmosphere with 5% CO2. Medium was replaced by loading buffer containing Hank's buffered saline, 20 mM HEPES, 2.5 mM probenecid and Calcium 4 dye, and the plates were incubated at 37°C for 60 minutes.

hDRD2 [3] = target: T4, hDRD2 (Homo sapiens, UniProt P14416); assay: cell-based; set-up: host or cells: 'Cells expressing hDRD2'; settings: for Emax: read-out: hDRD2 %Emax ± SEM
T4 sequence (P14416 whole entry): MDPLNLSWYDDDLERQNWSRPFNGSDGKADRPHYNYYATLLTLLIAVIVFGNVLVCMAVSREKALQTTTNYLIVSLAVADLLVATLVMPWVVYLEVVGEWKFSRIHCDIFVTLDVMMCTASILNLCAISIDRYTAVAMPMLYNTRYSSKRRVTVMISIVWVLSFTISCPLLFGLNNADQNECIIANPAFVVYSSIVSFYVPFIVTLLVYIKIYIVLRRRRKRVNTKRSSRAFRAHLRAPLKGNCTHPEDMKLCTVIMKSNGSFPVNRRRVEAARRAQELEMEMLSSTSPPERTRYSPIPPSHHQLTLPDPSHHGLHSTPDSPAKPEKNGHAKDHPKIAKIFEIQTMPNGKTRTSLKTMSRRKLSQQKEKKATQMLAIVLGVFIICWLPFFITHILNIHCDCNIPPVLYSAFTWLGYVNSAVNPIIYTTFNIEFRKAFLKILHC
Method: as §5, §6

hDRD2 [4] = target: T4, hDRD2; assay: biochemical; format: binding; set-up: expressed in transfected cells; host or cells: CHO-K1, pcDNA3.1/GS, zeocin-selected clonal line; membranes
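For Emax in this document: agonist activity at human DRD2 in DRD2-expressing cells, read as intracellular calcium mobilization with a FLIPR Calcium 4 fluorescent dye.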

Work on C[C@@H](O)[C@@H]1NC(=O)[C@H](CCCCN)NC(=O)[C@@H](Cc2c[nH]c3ccccc23)NC(=O)[C@H](Cc2ccccc2)NC(=O)[C@H](Cc2ccccc2)NC(=O)[C@H](CCCNC(=N)N)NC(=O)[C@H](NC[C@H](Cc2ccc(O)cc2)NC(=O)CSC[C@@H]2C[C@@H]3c4cccc5[nH]cc(c45)C[C@H]3N(C)C2)CCCCNC(=O)[C@H](Cc2ccc(O)cc2)NC1=O [Compound 33, Dop1-Tyr-psi(CH2NH)-cyclo(DLys-Arg-Phe-Phe-DTrp-Lys-Thr-Tyr)] yielded a Ki (hSSTR1) of 10.4 ± 3.2 nM, a Ki (hSSTR2 [1]) of 0.24 ± 0.1 nM and a Ki (hSSTR5) of 0.82 ± 0.4 nM. For the same compound, the EC50 (hSSTR2 [2]) was 13.8 ± 5 nM, the “improvement in EC50 and/or %Emax over Reference Compound B” value (hSSTR2 [2]; receptor not named) was “statistically significant improvement in EC50 and/or %Emax” and the EC50 (hDRD2 [3]) was 51.8 ± 20.6 nM. The Emax (hDRD2 [3]) was 102 ± 12.5% and the Ki (hDRD2 [4]) was 15 ± 2.6 nM.
In the case of C[C@@H](O)[C@@H]1NC(=O)[C@H](CCCCN)NC(=O)[C@@H](Cc2c[nH]c3ccccc23)NC(=O)[C@H](Cc2ccccc2)NC(=O)[C@H](Cc2ccccc2)NC(=O)[C@H](CCCNC(=N)N)NC(=O)[C@H](NCCS(=O)(=O)C[C@@H]2C[C@@H]3c4cccc5[nH]cc(c45)C[C@H]3N(C)C2)CCCCNC(=O)[C@H](Cc2ccc(F)cc2)NC1=O [Compound 10, Dop1(SO2)-psi(CH2NH)-cyclo(DLys-Arg-Phe-Phe-DTrp-Lys-Thr-4FPhe)], the Ki (hSSTR1) is reported as 6.6 nM, the Ki (hSSTR2 [1]) is reported as 0.17 ± 0.05 nM and the Ki (hSSTR5) is reported as 0.16 ± 0.1 nM. For the same compound, the EC50 (hSSTR2 [2]) was 19.4 ± 2 nM, the EC50 (hDRD2 [3]) was 24 ± 4.5 nM and the Emax (hDRD2 [3]) was 92.8 ± 4%. The Ki (hDRD2 [4]) was 56.4 ± 11.2 nM.
In the case of C[C@@H](O)[C@@H]1NC(=O)[C@H](CCCCN)NC(=O)[C@@H](Cc2c[nH]c3ccccc23)NC(=O)[C@H](Cc2ccncc2)NC(=O)[C@H](Cc2ccccc2)NC(=O)[C@H](CCCNC(=N)N)NC(=O)[C@H](NC[C@H](CCCCNC(=O)C[S+]([O-])C[C@@H]2C[C@@H]3c4cccc5[nH]cc(c45)C[C@H]3N(C)C2)NC(=O)C[S+]([O-])C[C@@H]2C[C@@H]3c4cccc5[nH]cc(c45)C[C@H]3N(C)C2)CCCCNC(=O)[C@H](Cc2ccccc2)NC1=O (stereo partly drawn) [Compound 17, Dop1(SO)-Lys[Dop1(SO)]-psi(CH2NH)-cyclo(DLys-Arg-Phe-4Pal-DTrp-Lys-Thr-Phe)], the Ki (hSSTR1) is reported as 91.4 nM, the Ki (hSSTR2 [1]) is reported as 0.08 ± 0.05 nM and the Ki (hSSTR5) is reported as 0.86 nM. The EC50 (hSSTR2 [2]) was 10.3 ± 2 nM, the EC50 (hDRD2 [3]) was 10.2 ± 2.2 nM and the Emax (hDRD2 [3]) was 96.9 ± 1.2%. The Ki (hDRD2 [4]) was 67.6 ± 18.4 nM.
C[C@@H](O)[C@@H]1NC(=O)[C@H](CCCCN)NC(=O)[C@@H](Cc2c[nH]c3ccccc23)NC(=O)[C@H](Cc2ccncc2)NC(=O)[C@H](Cc2ccccc2)NC(=O)[C@H](CCCNC(=N)N)NC(=O)[C@H](NC(=O)CSC[C@@H]2C[C@@H]3c4cccc5[nH]cc(c45)C[C@H]3N(C)C2)CCCCNC(=O)[C@H](Cc2ccc(O)cc2)NC1=O [Compound 25, Dop1-cyclo(DLys-Arg-Phe-4Pal-DTrp-Lys-Thr-Tyr)] (X2-[dK]RF[4Pal][dW]KTY; lactam 1-C) showed a Ki (hSSTR1) of 41.9 ± 17.6 nM, a Ki (hSSTR2 [1]) of 0.05 ± 0.01 nM and a Ki (hSSTR5) of 0.95 ± 0.1 nM. The EC50 (hSSTR2 [2]) was 3.4 ± 1 nM, the “improvement in EC50 over Reference Compound A” value (hSSTR2 [2]; receptor not named) was “statistically significant improvement in EC50” and the EC50 (hDRD2 [3]) was 27 ± 3.3 nM. It also gave an Emax (hDRD2 [3]) of 82.5 ± 7.6% and a Ki (hDRD2 [4]) of 272 ± 119 nM.
Compound C[C@@H](O)[C@@H]1NC(=O)[C@H](CCCCN)NC(=O)[C@@H](Cc2c[nH]c3ccccc23)NC(=O)[C@H](Cc2ccncc2)NC(=O)[C@H](Cc2ccccc2)NC(=O)[C@H](CCCNC(=N)N)NC(=O)[C@H](NCC[S@@+]([O-])C[C@@H]2C[C@@H]3c4cccc5[nH]cc(c45)C[C@H]3N(C)C2)CCCCNC(=O)[C@H](Cc2ccc(O)cc2)NC1=O [Compound 12, Dop1[(S)SO]-psi(CH2NH)-cyclo(DLys-Arg-Phe-4Pal-DTrp-Lys-Thr-Tyr)] has a Ki (hSSTR1) of 98.9 ± 2.3 nM, a Ki (hSSTR2 [1]) of 0.06 ± 0.01 nM and a Ki (hSSTR5) of 0.74 ± 0.4 nM. It also gave an EC50 (hSSTR2 [2]) of 4.1 ± 1.4 nM, an EC50 (hDRD2 [3]) of 76.3 ± 28.2 nM and an Emax (hDRD2 [3]) of 99.8 ± 6%. It also gave a Ki (hDRD2 [4]) of 255 ± 224 nM.
C[C@@H](O)[C@@H]1NC(=O)[C@H](CCCCN)NC(=O)[C@@H](Cc2c[nH]c3ccccc23)NC(=O)[C@H](Cc2ccccc2)NC(=O)[C@H](Cc2ccccc2)NC(=O)[C@H](CCCNC(=N)N)NC(=O)[C@H](NC[C@H](Cc2ccc(O)cc2)NC(=O)CSC[C@@H]2C[C@@H]3c4cccc5[nH]cc(c45)C[C@H]3N(C)C2)CCCCNC(=O)[C@H](Cc2ccccc2)NC1=O [Compound 32, Dop1-Tyr-psi(CH2NH)-cyclo(DLys-Arg-Phe-Phe-DTrp-Lys-Thr-Phe)] gave a Ki (hSSTR1) of 5.3 ± 2.9 nM, a Ki (hSSTR2 [1]) of 0.28 ± 0.07 nM and a Ki (hSSTR5) of 1.58 nM. For the same compound, the EC50 (hSSTR2 [2]) was 13.6 ± 3.4 nM, the “improvement in EC50 and/or %Emax over Reference Compound B” value (hSSTR2 [2]; receptor not named) was “statistically significant improvement in EC50 and/or %Emax” and the EC50 (hDRD2 [3]) was 35.6 ± 2.4 nM. For the same compound, the Emax (hDRD2 [3]) was 102 ± 12.8% and the Ki (hDRD2 [4]) was 44 ± 1 nM.
In the case of C[C@@H](O)[C@@H]1NC(=O)[C@H](CCCCN)NC(=O)[C@@H](Cc2c[nH]c3ccccc23)NC(=O)[C@H](Cc2ccncc2)NC(=O)[C@H](Cc2ccccc2)NC(=O)[C@H](CCCNC(=N)N)NC(=O)[C@H](N(CCSC[C@@H]2C[C@@H]3c4cccc5[nH]cc(c45)C[C@H]3N(C)C2)CCSC[C@@H]2C[C@@H]3c4cccc5[nH]cc(c45)C[C@H]3N(C)C2)CCCCNC(=O)[C@H](Cc2ccccc2)NC1=O [Compound 29, bis[Dop1-psi(CH2N)]-cyclo(DLys-Arg-Phe-4Pal-DTrp-Lys-Thr-Phe)] (RF[4Pal][dW]KTF; linker N-C via X1), the Ki (hSSTR1) is reported as 26.7 nM, the Ki (hSSTR2 [1]) is reported as 0.14 ± 0.02 nM and the Ki (hSSTR5) is reported as 2.37 nM. For the same compound, the EC50 (hSSTR2 [2]) was 12.1 ± 0.7 nM, the “improvement in EC50 over Reference Compound A” value (hSSTR2 [2]; receptor not named) was “statistically significant improvement in EC50” and the EC50 (hDRD2 [3]) was 254 ± 111 nM. It also gave an Emax (hDRD2 [3]) of 89 ± 4.5% and a Ki (hDRD2 [4]) of 135 ± 66.1 nM.
C[C@@H](O)[C@@H]1NC(=O)[C@H](CCCCN)NC(=O)[C@@H](Cc2c[nH]c3ccccc23)NC(=O)[C@H](Cc2ccncc2)NC(=O)[C@H](Cc2ccccc2)NC(=O)[C@H](CCCNC(=N)N)NC(=O)[C@H](NC[C@H](Cc2ccc(O)cc2)NC(=O)C[S+]([O-])C[C@@H]2C[C@@H]3c4cccc5[nH]cc(c45)C[C@H]3N(C)C2)CCCCNC(=O)[C@H](Cc2ccccc2)NC1=O (stereo partly drawn) [Compound 15, Dop1(SO)-Tyr-psi(CH2NH)-cyclo(DLys-Arg-Phe-4Pal-DTrp-Lys-Thr-Phe)] was tested, and the Ki (hSSTR1) was 64.4 nM, the Ki (hSSTR2 [1]) was 0.02 ± 0.01 nM and the Ki (hSSTR5) was 0.08 nM. For the same compound, the EC50 (hSSTR2 [2]) was 1.6 ± 0.3 nM, the EC50 (hDRD2 [3]) was 7.4 ± 0.4 nM and the Emax (hDRD2 [3]) was 94.6 ± 0.8%. It also gave a Ki (hDRD2 [4]) of 149 ± 11.3 nM.
C[C@@H](O)[C@@H]1NC(=O)[C@H](CCCCN)NC(=O)[C@@H](Cc2c[nH]c3ccccc23)NC(=O)[C@H](Cc2ccncc2)NC(=O)[C@H](Cc2ccccc2)NC(=O)[C@H](CCCNC(=N)N)NC(=O)[C@H](NC(=O)CSC[C@@H]2C[C@@H]3c4cccc5[nH]cc(c45)C[C@H]3N(C)C2)CCCCNC(=O)[C@H](Cc2ccccc2)NC1=O [Compound 24, Dop1-cyclo(DLys-Arg-Phe-4Pal-DTrp-Lys-Thr-Phe)] (X2-[dK]RF[4Pal][dW]KTF; lactam 1-C) was tested, and the Ki (hSSTR1; CHO-K1 cell membranes, 0.05 nM [125I-Tyr11]-SRIF-14, 60 minutes at 25°C, read-out: hSSTR1 Ki (nM) ± SEM) was 47.7 ± 30.7 nM, the Ki (hSSTR2 [1]; CHO-K1 cell membranes, 0.05 nM [125I-Tyr]-seglitide, 60 minutes at 25°C, read-out: hSSTR2 Ki (nM) ± SEM) was 0.08 ± 0.01 nM and the Ki (hSSTR5) was 2.39 nM. The “improvement in EC50 over Reference Compound A” value (hSSTR2 [2]; receptor not named) was “statistically significant improvement in EC50”, the “EC50 value lower than that for Reference Compound A” value (hSSTR2 [2]; ratio to Reference Compound A, receptor not named, figures fit hSSTR2) was “about 9 fold” and the Emax (hDRD2 [3]) was 87.8 ± 4%. It also gave a Ki (hDRD2 [4]; CHO-K1 cell membranes, […] [3H]-spiperone, 60 minutes at 25°C, read-out: hDRD2 Ki (nM) ± SEM) of 175 ± 25.6 nM.
